Measured values from patent publication US11168073B2, “3,3-difluoroallylamines or salts thereof and pharmaceutical compositions comprising the same” (YUHAN CORPORATION, priority 2018, dated 2021).
Structures can show the parent of a compound that is named as a salt.

Assays:
Type in all cases: biochemical
recombinant human VAP-1 = target: T1, recombinant human VAP-1 (Homo sapiens, UniProt Q16853); assay: Activity evaluation on recombinant human VAP-1 (Amplex Red/HRP-coupled hydrogen peroxide assay, benzylamine substrate); details: recombinant human VAP-1; 30 min preincubation at 37° C.; 1 mM benzylamine; read-out: Inhibitory Activity (IC50, nM) human VAP-1
T1 construct: purchased R&D systems
T1 sequence (Q16853 1-763): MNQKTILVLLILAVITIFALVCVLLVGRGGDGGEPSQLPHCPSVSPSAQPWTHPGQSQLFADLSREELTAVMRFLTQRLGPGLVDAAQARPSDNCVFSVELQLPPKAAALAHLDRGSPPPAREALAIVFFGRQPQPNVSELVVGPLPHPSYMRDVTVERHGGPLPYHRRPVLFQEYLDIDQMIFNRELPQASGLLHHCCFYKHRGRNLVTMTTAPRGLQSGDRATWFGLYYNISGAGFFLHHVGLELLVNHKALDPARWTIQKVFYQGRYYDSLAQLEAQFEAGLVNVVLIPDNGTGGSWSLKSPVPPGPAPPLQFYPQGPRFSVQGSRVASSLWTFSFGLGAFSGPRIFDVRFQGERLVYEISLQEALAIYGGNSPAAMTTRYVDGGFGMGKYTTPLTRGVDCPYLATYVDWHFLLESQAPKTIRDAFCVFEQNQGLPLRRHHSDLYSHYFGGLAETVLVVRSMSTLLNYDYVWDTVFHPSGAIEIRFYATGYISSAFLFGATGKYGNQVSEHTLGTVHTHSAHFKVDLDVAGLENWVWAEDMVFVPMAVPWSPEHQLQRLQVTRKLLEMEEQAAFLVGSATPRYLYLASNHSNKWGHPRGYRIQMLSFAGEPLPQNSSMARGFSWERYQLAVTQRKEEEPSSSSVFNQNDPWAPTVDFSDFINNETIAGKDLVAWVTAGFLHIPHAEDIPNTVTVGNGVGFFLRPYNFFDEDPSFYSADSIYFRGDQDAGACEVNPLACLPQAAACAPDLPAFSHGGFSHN
Procedure: (§1) The compounds according to the present technology were evaluated in terms of activity on recombinant human VAP-1 (R&D systems) by measuring the level of hydrogen peroxide in horseradish peroxidase (HRP)-coupled reaction using Amplex Red Hydrogen Peroxide Assay Kit (Molecular Probes, Invitrogen, USA). The experiment was carried out at room temperature using benzylamine as a substrate. In the HRP-coupled reaction, hydrogen peroxide oxidation of 10-acetyl-3,7-dihydroxyphenoxazine (Amplex Red reagent) produces resorufin, which is a highly fluorescent compound. Briefly, the test compound was dissolved in dimethyl sulfoxide (DMSO) at a concentration of 20 mM. The dose-response assessment was made by 1:3 serial dilution in DMSO, thereby creating a 8 point curve. The concentration of the upper part was controlled according to the efficacy of the compounds, followed by the dilution with a reaction buffer solution to obtain a final DMSO concentration of less than 1%. To each well of a 96 black well plate, human VAP-1 purified in 50 mM sodium phosphate buffer solution (pH7.4) was added. The test compounds dissolved in DMSO were incubated with the human VAP-1 enzymes at 37° C. for 30 minutes. After 30-minute incubation, each well was added with a reaction mixture containing 200 uM Amplex Red reagent prepared from 50 mM sodium phosphate buffer solution (pH 7.4), 1 mM benzylamine, and 1 U/mL HRP. Fluorescence intensity was measured at several time points during 1-2 hours using a microplate reader (Flexstation3, Molecular Devices) under the wavelength condition exciting at 544 nm and reading the emission at 590 nm. The inhibitory effect of the compounds was measured as a decrease (%) in the signal rate as compared to the control group without any inhibitor (only diluted DMSO). Data was fixed to a logistic model with four variables and IC50 value was calculated using GraphPad Prism program.

[1] = target: T2, recombinant human MAO-A (monoamine oxidase-A) (Homo sapiens, UniProt P21397); assay: Activity evaluation on recombinant human MAO-A (Amplex Red/HRP-coupled assay, 0.5 mM tyramine substrate); details: 0.5 mM tyramine, read-out: Inhibitory Activity (IC50, nM) MAO-A
T2 construct: purchased Sigma-Aldrich
T2 sequence (P21397 1-527): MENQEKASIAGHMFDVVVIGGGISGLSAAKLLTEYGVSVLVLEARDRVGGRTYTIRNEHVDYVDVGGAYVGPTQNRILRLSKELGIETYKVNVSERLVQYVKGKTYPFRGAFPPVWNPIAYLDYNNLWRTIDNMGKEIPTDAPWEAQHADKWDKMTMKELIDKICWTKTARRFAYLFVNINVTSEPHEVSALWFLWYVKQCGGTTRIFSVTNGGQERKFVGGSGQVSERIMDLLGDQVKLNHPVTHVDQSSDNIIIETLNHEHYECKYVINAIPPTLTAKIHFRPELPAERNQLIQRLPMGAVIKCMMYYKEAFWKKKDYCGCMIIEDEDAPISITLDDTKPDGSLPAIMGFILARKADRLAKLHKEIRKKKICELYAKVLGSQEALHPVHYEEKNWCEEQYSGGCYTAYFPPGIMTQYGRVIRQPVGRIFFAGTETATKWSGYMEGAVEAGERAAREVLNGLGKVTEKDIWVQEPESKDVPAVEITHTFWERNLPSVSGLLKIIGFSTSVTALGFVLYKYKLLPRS
Procedure: as §1
(§2) In addition, the compounds according to the present technology were evaluated in terms of activity on a recombinant human MAO-A (monoamine oxidase-A, Sigma-Aldrich) and a recombinant human MAO-B (monoamine oxidase-B, Sigma-Aldrich) by using as substrates, 0.5 mM tyramine and 1 mM benzylamine, respectively, with a method similar to the activity evaluation method for recombinant human VAP-1. The compounds according to the present technology were also evaluated in terms of activity on a recombinant human DAO (diamine oxidase, R&D systems) by using as a substrate 1 mM putrescine with a method similar to the activity evaluation method for recombinant human VAP-1.

[2] = target: T3, recombinant human MAO-B (monoamine oxidase-B) (Homo sapiens, UniProt P27338); assay: Activity evaluation on recombinant human MAO-B (Amplex Red/HRP-coupled assay, 1 mM benzylamine substrate); details: 1 mM benzylamine, read-out: Inhibitory Activity (IC50, nM) MAO-B
T3 construct: purchased Sigma-Aldrich
T3 sequence (P27338 1-520): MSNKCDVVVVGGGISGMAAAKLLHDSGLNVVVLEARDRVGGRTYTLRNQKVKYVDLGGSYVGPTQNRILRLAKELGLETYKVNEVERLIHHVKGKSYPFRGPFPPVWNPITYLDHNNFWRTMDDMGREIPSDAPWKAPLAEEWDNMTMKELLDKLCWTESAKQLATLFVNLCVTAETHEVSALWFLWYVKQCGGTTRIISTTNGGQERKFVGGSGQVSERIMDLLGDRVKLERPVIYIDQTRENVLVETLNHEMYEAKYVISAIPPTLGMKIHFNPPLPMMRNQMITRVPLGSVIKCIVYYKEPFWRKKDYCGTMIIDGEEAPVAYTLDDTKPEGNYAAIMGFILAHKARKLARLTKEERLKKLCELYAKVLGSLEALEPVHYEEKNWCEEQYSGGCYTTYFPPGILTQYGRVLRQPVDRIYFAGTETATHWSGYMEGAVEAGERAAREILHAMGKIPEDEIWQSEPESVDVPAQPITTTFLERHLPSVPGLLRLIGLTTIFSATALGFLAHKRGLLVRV
Procedure: as §1, §2

[3] = target: T4, recombinant human DAO (diamine oxidase) (Homo sapiens, UniProt P19801); assay: Activity evaluation on recombinant human DAO (Amplex Red/HRP-coupled assay, 1 mM putrescine substrate); details: 1 mM putrescine, read-out: Inhibitory Activity (IC50, nM) DAO
T4 construct: purchased R&D systems
T4 sequence (P19801 20-751): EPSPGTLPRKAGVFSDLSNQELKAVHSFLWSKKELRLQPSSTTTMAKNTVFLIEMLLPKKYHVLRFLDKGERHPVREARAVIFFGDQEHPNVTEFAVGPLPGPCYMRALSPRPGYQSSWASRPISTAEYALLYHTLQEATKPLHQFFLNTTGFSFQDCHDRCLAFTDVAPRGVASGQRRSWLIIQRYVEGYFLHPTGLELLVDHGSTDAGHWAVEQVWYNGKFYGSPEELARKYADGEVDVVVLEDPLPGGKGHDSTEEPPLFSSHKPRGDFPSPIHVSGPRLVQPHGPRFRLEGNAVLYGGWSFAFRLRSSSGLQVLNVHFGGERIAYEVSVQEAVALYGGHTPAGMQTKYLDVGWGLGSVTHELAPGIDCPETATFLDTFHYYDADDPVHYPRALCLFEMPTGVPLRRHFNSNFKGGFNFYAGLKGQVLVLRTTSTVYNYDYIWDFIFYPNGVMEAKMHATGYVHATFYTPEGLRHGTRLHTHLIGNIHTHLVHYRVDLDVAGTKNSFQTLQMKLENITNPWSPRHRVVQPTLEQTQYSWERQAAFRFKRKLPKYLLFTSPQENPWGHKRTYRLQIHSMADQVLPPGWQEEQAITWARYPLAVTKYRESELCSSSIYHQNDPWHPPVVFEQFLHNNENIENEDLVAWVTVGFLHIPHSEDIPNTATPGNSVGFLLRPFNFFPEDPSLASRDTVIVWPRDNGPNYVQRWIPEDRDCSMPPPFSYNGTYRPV
Procedure: as §1, §2

SMILES | IC50 (recombinant human VAP-1) [nM] | IC50 [1] [nM] | IC50 [2] [nM] | IC50 [3] [nM]
CS(=O)(=O)c1ccc(-c2ccc(-n3cnn(CC(CN)=C(F)F)c3=O)cc2F)cc1 [Example 24, 2-[2-(aminomethyl)-3,3-difluoro-allyl]-4-[3-fluoro-4-(4-methylsulfonylphenyl)phenyl]-1,2,4-triazol-3-one Trifluoroacetate] | 2.7 | > 100000 | 3300 | 600
NCC(Cn1ncn(-c2ccc(-c3ccc(N4CCNCC4)cc3)c(F)c2)c1=O)=C(F)F [Example 25, 2-[2-(aminomethyl)-3,3-difluoro-allyl]-4-[3-fluoro-4-(4-piperazin-1-ylphenyl)phenyl]-1,2,4-triazol-3-one Ditrifluoroacetate] | 1.7 | 6280 | > 10000 | 1300
NCC(Cn1ncn(-c2ccc(-c3ccc(C(F)(F)F)nc3)c(F)c2)c1=O)=C(F)F [Example 26, 2-[2-(aminomethyl)-3,3-difluoro-allyl]-4-[3-fluoro-4-[6-(trifluoromethyl)-3-pyridyl]phenyl]-1,2,4-triazol-3-one Trifluoroacetate] | 0.7 | > 100000 | 180 | 71
CN(C)c1ccc(-c2ccc(-n3cnn(CC(CN)=C(F)F)c3=O)cc2F)cn1 [Example 27, 2-[2-(aminomethyl)-3,3-difluoro-allyl]-4-[4-[6-(dimethylamino)-3-pyridyl]-3-fluoro-phenyl]-1,2,4-triazol-3-one Trifluoroacetate] | 0.4 | > 100000 | 350 | 380
NCC(Cn1ncn(-c2ccc(-c3ccc4c(c3)OCO4)c(F)c2)c1=O)=C(F)F [Example 28, 2-[2-(aminomethyl)-3,3-difluoro-allyl]-4-[4-(1,3-benzodioxol-5-yl)-3-fluoro-phenyl]-1,2,4-triazol-3-one Trifluoroacetate] | 1.2 | > 100000 | 85 | 1600
Cc1cc(-c2ccc(-n3cnn(CC(CN)=C(F)F)c3=O)cc2F)cc2c1NC(=O)CC2 [Example 29, 6-[4-[1-[2-(aminomethyl)-3,3-difluoro-allyl]-5-oxo-1,2,4-triazol-4-yl]-2-fluoro-phenyl]-8-methyl-3,4-dihydro-1H-quinolin-2-one Trifluoroacetate] | 0.2 | > 100000 | 150 | 200
CCn1cc(-c2ccc(-n3cnn(CC(CN)=C(F)F)c3=O)cc2F)cn1 [Example 30, 2-[2-(aminomethyl)-3,3-difluoro-allyl]-4-[4-(1-ethylpyrazol-4-yl)-3-fluoro-phenyl]-1,2,4-triazol-3-one Trifluoroacetate] | 0.6 | > 100000 | 300 | 890
CS(=O)(=O)c1ccc(-c2ccc(-n3cnn(CC(CN)=C(F)F)c3=O)c(F)c2)cc1 [Example 31, 2-[2-(aminomethyl)-3,3-difluoro-allyl]-4-[2-fluoro-4-(4-methylsulfonylphenyl)phenyl]-1,2,4-triazol-3-one Trifluoroacetate] | 0.2 | > 100000 | 870 | 59
NCC(Cn1ncn(-c2ccc(-c3ccc(N4CCNCC4)cc3)cc2F)c1=O)=C(F)F [Example 32, 2-[2-(aminomethyl)-3,3-difluoro-allyl]-4-[2-fluoro-4-(4-piperazin-1-ylphenyl)phenyl]-1,2,4-triazol-3-one Ditrifluoroacetate] | 1.3 | > 100000 | 17000 | 670
NCC(Cn1ncn(-c2ccc(-c3ccc(C(F)(F)F)nc3)cc2F)c1=O)=C(F)F [Example 33, 2-[2-(aminomethyl)-3,3-difluoro-allyl]-4-[2-fluoro-4-[6-(trifluoromethyl)-3-pyridyl]phenyl]-1,2,4-triazol-3-one Trifluoroacetate] | 0.3 | 11000 | 190 | 17
CN(C)c1ccc(-c2ccc(-n3cnn(CC(CN)=C(F)F)c3=O)c(F)c2)cn1 [Example 34, 2-[2-(aminomethyl)-3,3-difluoro-allyl]-4-[4-[6-(dimethylamino)-3-pyridyl]-2-fluoro-phenyl]-1,2,4-triazol-3-one Trifluoroacetate] | 0.3 | 27000 | 770 | 250
